In paper PMC3918733, “The Enzymatic Decolorization of Textile Dyes by the Immobilized Polyphenol Oxidase from Quince Leaves” (The Scientific World Journal, 2014) one finds Km data, which are given here for one compound.

Usually Km stands for the substrate concentration at which the rate is half of its maximum.

The test system of the assay is T1, polyphenol oxidase (PPO) from quince leaves.
T1 construct: isoenzyme not identified; free enzyme
In words: absorbance at […] nm, Lineweaver-Burk. Type of assay: biochemical, Cydonia oblonga. The following applies: free enzyme, partially purified; optimum pH and temperature (pH 7.5, 30 °C), phosphate buffer.

For `Oc1ccccc1O` [catechol], the Km worked out at 5.86 mM.
